The source made the active and inactive calls. No cut-off for these calls is given here.
How the values were obtained:
[1] = target: T1, 11-beta-hydroxysteroid dehydrogenase 1 (Mus musculus, UniProt P50172); assay: In vitro inhibitory activity against mouse 11 beta hydroxysteroid dehydrogenase type 1 using scintillation proximity assay (SPA)
[2] = target: 11-beta-hydroxysteroid dehydrogenase type 2 (Mus musculus) (UniProt P51661); assay: Inhibitory activity against mouse 11 beta hydroxysteroid dehydrogenase type 2 at a concentration of 0.2 mM; NI means no inhibition
Sequence of 11-beta-hydroxysteroid dehydrogenase type 2 (Mus musculus) (P51661 whole entry, looked up): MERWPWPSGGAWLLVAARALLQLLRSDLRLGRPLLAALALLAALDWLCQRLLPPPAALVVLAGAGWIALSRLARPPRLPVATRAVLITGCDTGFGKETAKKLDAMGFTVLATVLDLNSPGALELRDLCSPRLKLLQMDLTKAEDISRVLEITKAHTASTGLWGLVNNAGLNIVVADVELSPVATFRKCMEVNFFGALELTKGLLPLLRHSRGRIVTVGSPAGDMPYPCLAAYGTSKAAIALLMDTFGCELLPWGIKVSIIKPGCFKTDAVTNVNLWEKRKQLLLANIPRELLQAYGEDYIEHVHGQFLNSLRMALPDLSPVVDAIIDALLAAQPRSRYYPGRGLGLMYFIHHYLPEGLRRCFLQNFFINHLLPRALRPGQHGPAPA

[3] = target: 11-beta-hydroxysteroid dehydrogenase type 2 (Homo sapiens, UniProt P80365); assay: Ability to convert [3H]cortisol to the tritium labeled cortisone in the presence of human 11 beta hydroxysteroid dehydrogenase type 2
Sequence of 11-beta-hydroxysteroid dehydrogenase type 2 (P80365 whole entry, looked up): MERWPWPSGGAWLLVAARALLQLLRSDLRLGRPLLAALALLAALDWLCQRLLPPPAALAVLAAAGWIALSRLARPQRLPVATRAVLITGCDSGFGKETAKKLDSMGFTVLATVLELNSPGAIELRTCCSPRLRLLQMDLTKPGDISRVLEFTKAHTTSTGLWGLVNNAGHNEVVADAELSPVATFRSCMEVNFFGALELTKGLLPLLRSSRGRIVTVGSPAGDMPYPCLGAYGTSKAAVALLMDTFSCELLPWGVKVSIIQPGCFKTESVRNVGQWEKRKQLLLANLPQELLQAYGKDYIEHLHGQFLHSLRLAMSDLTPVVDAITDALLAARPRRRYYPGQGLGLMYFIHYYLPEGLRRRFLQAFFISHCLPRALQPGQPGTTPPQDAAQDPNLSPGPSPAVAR

[4] = target: T1, 11-beta-hydroxysteroid dehydrogenase 1; assay: In vitro inhibitory activity against mouse 11 beta hydroxysteroid dehydrogenase type 1 using scintillation proximity assay (SPA).

| SMILES | IC50 [1] | NI [2] | IC50 [3] | IC50 [4] |
| --- | --- | --- | --- | --- |
| Cc1c(Cl)cccc1S(=O)(=O)Nc1nc(CC(=O)N2CCN(C)CC2)cs1 | […] | inactive | > 10000 nM | – |
| CCN(CC)C(=O)Cc1csc(NS(=O)(=O)c2cccc(Cl)c2C)n1 | – | – | > 10000 nM | […] |

From ChEMBL document CHEMBL1135754, “Arylsulfonamidothiazoles as a new class of potential antidiabetic drugs. Discovery of potent and selective inhibitors of the 11beta-hydroxysteroid dehydrogenase type 1” (J Med Chem, 2002)
